Assays:
3T3-L1 cells = experiment: Deoxy-D-Glucose, 2-(1-14C) uptake in 3T3-L1 cells (insulin-like action); format: cell-based
Procedure: This example studies the time and dose dependant uptake of Deoxy-D-Glucose, 2-(1-^14C) uptake in 3T3-L1 cells treated with the test compound. 3T3-L1 cells were cultured (DMEM+FBS) in a 24 well plate and were treated with a 5 μg/ml and a 50 μg/ml dose of the test compound for 10 or 30 min. Cells treated with 100 nM insulin was used as a positive control. Radioactivity (cpm) was measured with TopCount (Packard).

serum testosterone = experiment: Serum testosterone by radioimmunoassay in castrated immature rats after four weeks of treatment; format: in vivo, Wistar rats; details: daily treatment, 35 mg/kg p.o., RIA
Procedure: In addition, to rule out any possibility of androgenic activity in the increase in body weight and muscle mass, the serum testosterone levels were measured.
Immature male Wistar rats weighing about 55 gm (±5gm) were selected for the study. These rats were anesthetized by anesthetic ether and castrated. After four weeks of treatment, the blood was withdrawn from the rats by retro orbital puncture method and analyzed for serum testosterone, which was measured with the help of radioimmunoassay (RIA) kit.

[1] = system: Diabetes Induced with Alloxan; experiment: Blood sugar levels in early stages of diabetes induced with alloxan; format: in vivo, Wistar rats; details: alloxan-diabetic rats; for Blood sugar level, 0 day: day 0; for Blood sugar level, 0 day / Blood sugar level, 15 day / Blood sugar level, 30 day: doses: test compound 60 mg/kg, fenugreek seed powder 2 g/kg, crude alcohol extract 1 g/kg, pioglitazone 5 mg/kg; for Change in BSL (%): day 0 to day 30, numbers are printed as DECREASE, doses as in the row (60 mg/kg, 2 g/kg, 1 g/kg, 5 mg/kg); for Blood sugar level, 15 day: day 15 of treatment; for Blood sugar level, 30 day: day 30 of treatment
Procedure: (§1) Male Wistar rats were injected with alloxan monohydrate (160 mg/kg i.p.) to induce diabetes. After 48 hours of injection blood glucose levels were determined using glucose estimation kits. Animals with blood glucose levels above 300 mg/dl were selected and divided into four groups of 6 rats in each group.
Group 1: Non-Diabetic Control
Group 2: Diabetes Control
Group 3: Test Compound (60 mg/kg)
Group 4: Pioglitazone (Standard Drug) (5 mg/kg)
(§2) The animals were given respective drug solutions in stipulated dose, for 30 days. On the 0th, 15th and 30th day of treatment, the blood sugar levels and body weights were analyzed.
Serum was obtained by centrifuging the blood obtained by retero-orbital blood withdrawal at 7000 rpm at 4° C. for 15 min. The serum obtained was collected for Blood sugar level determinations. The below table provides data on blood glucose levels of various groups.

[2] = Double-blind, placebo-controlled clinical study: strength (isotonic bench and leg press); format: in vivo, human; details: volunteers, 500 mg, 2 month study, weight lifted
Procedure: (§3) Subsequently, a double-blind, placebo-controlled study in 49 pre-trained volunteers was conducted to assess the safety and efficacy of the test compound. This 2 month study was conducted with supplementation of 500 mg of the test compound and the volunteers were on resistance training 4 times/week. During this study the effect of the test compound on body composition (fat content) and strength were evaluated.
Since this product was used to increase muscle mass, the effect of the test compound on the strength of the volunteers was evaluated. This was done by conducting isotonic repetitions of bench and leg press exercises. An increase in strength was determined based on an increase in weight lifted during these two exercises.

[3] = Body weight in early stages of diabetes induced with alloxan; format: in vivo, Wistar rats; details: alloxan-diabetic rats, test compound 60 mg/kg, pioglitazone 5 mg/kg; for Body weight, 0 day: day 0; for % Change in Body weight: day 0 to day 30, numbers are printed as INCREASE; for Body weight, 15 day: day 15; for Body weight, 30 day: day 30
Procedure: as §1, §2
There was a significant decrease in body weight in diabetic group as compared to non diabetic group. In the test compound treated group the body weight on 0 day was 185.16 & 240.83 on 30 day. […] There was a 29% increase in weight in the animals treated with the test compound that was an excellent result when compared to the 9% decrease in body weight of the untreated diabetic animals. The below table provides the percentage change in body weight of groups treated with respective treatments.

[4] = Double-blind, placebo-controlled clinical study: body composition (body fat) by bioelectric impedance and hydrostatic weighing; format: in vivo, human; details: volunteers, 500 mg supplementation, 8 weeks, resistance training 4 times/week
Procedure: as §3
Body density was analyzed by bioelectric impedance and hydrostatic weighing. Based on these parameters fat free mass was calculated. From the FIG. 5 it is concluded that during the study period of 8 weeks, the test product reduced the body fat by 12%. This is a significant reduction.

[5] = Body composition (anabolic/androgenic activity) in castrated immature rats, 4 weeks of treatment; format: in vivo, Wistar rats
Description: Immature male Wistar rats weighing about 55 gm (±5 gm) were selected for the study. These rats were anesthetized by anesthetic ether and castrated. After 4 weeks of treatment, animals were sacrificed and the seminal vesicles, the ventral prostate, and the muscle levator ani carefully dissected and weighed. Body weight of the animals was registered at the beginning and at the end of the experiment. Increase in weight of seminal vesicles and ventral prostate indicates androgenic activity, whereas increase in weight of levator ani muscles was considered to indicate anabolic activity.

[6] = Levator ani muscle mass in alloxan-diabetic animals; format: in vivo, Wistar rats; details: alloxan-diabetic animals on treatment, FIG. 8
Description: A subsequent study was done to evaluate the impact of the increase in weight on the muscle content of the animals.
The levitor ani muscles of these animals were checked for the drugs effect on muscle mass.

Compound | Blood sugar level, 0 day [1] | Change in BSL (%) [1] | Blood sugar level, 15 day [1] | Blood sugar level, 30 day [1] | Body weight, 0 day [3] | % Change in Body weight [3] | Body weight, 15 day [3] | Body weight, 30 day [3] | other results
Insulin [reference compound] |  |  |  |  |  |  |  |  | stimulation of glucose uptake (3T3-L1 cells; 100 nM insulin, 10 min): 1.74 fold
OCC1O[C@H](OCC2O[C@@H](O[C@@H]3C(CO[C@H]4OC(CO)[C@H](O)C(O)C4O)O[C@@H](O)C(O)C3O)C(O)C(O)[C@@H]2O)C(O)C(O)[C@H]1O (some centres unmarked) [test compound] | 416.5 ± 14.42 mg/dL | 55% | 294.5 ± 12.22 mg/dL | 187 ± 9.33 mg/dL | 185.16 gm | 29% | 215.83 ± 6.05 gm | 240.83 gm | glucose uptake (3T3-L1 cells; dose of 5 μg/ml, 10 or 30 min): enhanced glucose uptake; total serum testosterone levels (serum testosterone): no significant increase; Change in BSL (%) ([1]; listed as Test Compound): 55% DECREASE; increase in strength compared to placebo, bench press [2]: 100%; increase in strength compared to placebo, leg press [2]: 80%; Body weight, 0 day ([3]; listed as Test Compound): 185.16 ± 6.53 gm; % Change in Body weight ([3]; listed as Test Compound): 29% INCREASE; Body weight, 30 day ([3]; listed as Test Compound): 240.83 ± 6.42 gm; reduction of body fat [4]: 12%; weight of the levator ani muscles (anabolic activity) ([5]; 4 weeks of treatment): significant increase; weights of organs of the male reproductive system (prostate, seminal vesicle and penis); androgenic activity ([5]; 4 weeks, 10 and 35 mg/kg): did not increase; change in body weight ([5]; four-week treatment, 10 mg/kg p.o): did not cause any change; body weight compared with control group ([5]; four-week treatment, 35 mg/kg p.o): significant rise; muscle mass (levitor ani muscles) [6]: significant increase
C[C@]12CC[C@H]3[C@@H](CCC4=CC(=O)CC[C@@]43C)[C@@H]1CC[C@@H]2O [testosterone, reference compound] |  |  |  |  |  |  |  |  | body weight compared with control group ([5]; four weeks, 10 mg s.c biweekly): significant rise
CCc1ccc(CCOc2ccc(CC3SC(=O)NC3=O)cc2)nc1 (centres unmarked) [Pioglitazone, reference compound] | 438.66 ± 6.37 mg/dL | 35.8% DECREASE | 376.33 ± 7.29 mg/dL | 281 ± 5.92 mg/dL | 165 ± 5.41 gm | 25% INCREASE | 198.5 ± 6.45 gm | 207.83 ± 4.49 gm | 

Source: US8288364B2, “Botanically derived composition and a process thereof” (Indus Biotech Private Limited, priority 2008, dated 2012)
